Assay in all cases: scanMAX kinase panel
Holding throughout (type): binding
Conditions in all cases: read-out: % Control; for remaining binding at 1 µM: 1000 nM

One assay addresses T1, FLT3(D835Y) (Homo sapiens, UniProt P36888, D835Y).
T1 construct: purchased DiscoverX scanMAX
T1 sequence (P36888 27-993 D835Y): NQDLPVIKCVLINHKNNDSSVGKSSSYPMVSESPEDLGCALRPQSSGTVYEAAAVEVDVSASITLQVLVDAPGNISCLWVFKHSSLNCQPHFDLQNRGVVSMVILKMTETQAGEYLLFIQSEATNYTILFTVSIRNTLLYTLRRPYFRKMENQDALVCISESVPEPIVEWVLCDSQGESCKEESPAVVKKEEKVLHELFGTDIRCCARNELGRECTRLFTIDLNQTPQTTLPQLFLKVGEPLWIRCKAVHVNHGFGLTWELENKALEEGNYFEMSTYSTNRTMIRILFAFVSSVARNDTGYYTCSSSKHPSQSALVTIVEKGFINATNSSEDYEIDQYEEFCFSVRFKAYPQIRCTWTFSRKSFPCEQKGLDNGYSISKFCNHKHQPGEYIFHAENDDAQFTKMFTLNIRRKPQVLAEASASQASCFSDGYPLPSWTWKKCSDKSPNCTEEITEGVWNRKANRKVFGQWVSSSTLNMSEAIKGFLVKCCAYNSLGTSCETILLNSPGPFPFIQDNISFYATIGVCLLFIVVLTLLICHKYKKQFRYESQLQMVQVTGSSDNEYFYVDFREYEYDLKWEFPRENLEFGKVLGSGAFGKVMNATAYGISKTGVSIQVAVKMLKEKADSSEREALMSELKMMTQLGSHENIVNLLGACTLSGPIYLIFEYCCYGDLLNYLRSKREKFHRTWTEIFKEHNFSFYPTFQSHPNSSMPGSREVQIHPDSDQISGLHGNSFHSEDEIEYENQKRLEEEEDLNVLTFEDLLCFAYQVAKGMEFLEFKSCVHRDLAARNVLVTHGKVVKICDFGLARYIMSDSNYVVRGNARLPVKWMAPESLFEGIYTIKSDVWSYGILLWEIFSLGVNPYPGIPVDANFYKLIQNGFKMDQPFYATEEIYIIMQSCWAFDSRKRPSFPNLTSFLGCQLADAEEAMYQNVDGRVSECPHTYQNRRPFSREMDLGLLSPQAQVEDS
From the text: (§1) Supplemental Table S2. scanMAXSM Kinome Assay Results. Complete tabulated data of all 468 kinases from the panel, including
(§2) 403 wild-type and 65 mutant isoforms. […] Cmpd 11 and Cmpd 24

The next assay concerns the target T2, AURKB (Homo sapiens, UniProt Q96GD4).
T2 construct: purchased DiscoverX scanMAX
Source text: as §1, §2

In a further assay the target is T3, PIK3CA(E542K) (Homo sapiens, UniProt P42336, E542K).
T3 construct: purchased DiscoverX scanMAX
Source text: as §1, §2

Another assay deals with T4, RIPK2 (Homo sapiens, UniProt O43353).
T4 construct: purchased DiscoverX (scanMAX panel)
Source text: as §1, §2

Another assay has as its target T5, TYK2(JH2domain-pseudok.) (Homo sapiens, UniProt P29597).
T5 construct: TYK2(JH2domain-pseudok.); purchased DiscoverX (scanMAX panel)
Source text: as §1, §2

The target of a further assay is T6, NEK1 (Homo sapiens, UniProt Q96PY6).
T6 construct: purchased DiscoverX scanMAX
T6 sequence (Q96PY6 1-1258): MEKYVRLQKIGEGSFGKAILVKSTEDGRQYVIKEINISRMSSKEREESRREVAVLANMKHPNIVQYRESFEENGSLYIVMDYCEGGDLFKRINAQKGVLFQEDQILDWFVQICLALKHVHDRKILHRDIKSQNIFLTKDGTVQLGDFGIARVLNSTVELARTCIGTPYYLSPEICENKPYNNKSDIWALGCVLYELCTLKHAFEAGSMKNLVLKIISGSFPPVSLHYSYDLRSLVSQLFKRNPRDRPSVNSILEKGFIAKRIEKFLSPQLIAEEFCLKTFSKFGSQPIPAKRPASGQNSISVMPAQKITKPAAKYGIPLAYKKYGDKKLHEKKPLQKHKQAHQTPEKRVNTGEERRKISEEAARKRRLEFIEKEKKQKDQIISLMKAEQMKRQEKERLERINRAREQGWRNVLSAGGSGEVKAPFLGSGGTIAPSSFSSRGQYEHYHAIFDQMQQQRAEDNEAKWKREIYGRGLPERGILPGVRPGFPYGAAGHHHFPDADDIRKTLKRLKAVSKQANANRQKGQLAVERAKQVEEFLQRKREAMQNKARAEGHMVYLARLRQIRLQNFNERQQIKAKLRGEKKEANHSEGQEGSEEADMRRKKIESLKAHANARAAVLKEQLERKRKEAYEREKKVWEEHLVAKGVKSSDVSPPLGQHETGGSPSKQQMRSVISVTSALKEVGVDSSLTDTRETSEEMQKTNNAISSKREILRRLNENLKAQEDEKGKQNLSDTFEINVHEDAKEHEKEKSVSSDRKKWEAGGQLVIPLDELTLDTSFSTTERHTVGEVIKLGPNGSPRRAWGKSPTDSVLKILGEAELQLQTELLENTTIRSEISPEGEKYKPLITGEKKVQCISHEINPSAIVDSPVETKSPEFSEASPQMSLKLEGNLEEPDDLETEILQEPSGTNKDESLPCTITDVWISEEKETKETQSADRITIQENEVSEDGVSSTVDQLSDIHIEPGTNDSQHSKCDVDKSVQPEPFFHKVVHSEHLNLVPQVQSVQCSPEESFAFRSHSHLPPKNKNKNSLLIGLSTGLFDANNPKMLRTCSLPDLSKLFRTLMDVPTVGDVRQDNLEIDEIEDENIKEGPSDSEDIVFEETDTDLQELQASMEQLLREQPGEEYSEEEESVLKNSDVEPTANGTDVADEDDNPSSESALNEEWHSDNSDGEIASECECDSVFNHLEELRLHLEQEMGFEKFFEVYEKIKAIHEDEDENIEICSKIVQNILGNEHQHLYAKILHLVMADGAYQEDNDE
Source text: as §1, §2

A further assay addresses T7, TRKB (Homo sapiens, UniProt Q16620).
T7 construct: purchased DiscoverX (scanMAX panel)
Source text: as §1, §2

For the next assay, the target named is T8, PRKR (Homo sapiens, UniProt P19525).
T8 construct: purchased DiscoverX scanMAX
Source text: as §1, §2

The target of a further assay is T9, KIT(V559D) (Homo sapiens, UniProt P10721, V559D).
T9 construct: purchased DiscoverX scanMAX
Source text: as §1, §2

Each structure is given as a SMILES string.

T5 sequence (P29597 589-875 limits assumed): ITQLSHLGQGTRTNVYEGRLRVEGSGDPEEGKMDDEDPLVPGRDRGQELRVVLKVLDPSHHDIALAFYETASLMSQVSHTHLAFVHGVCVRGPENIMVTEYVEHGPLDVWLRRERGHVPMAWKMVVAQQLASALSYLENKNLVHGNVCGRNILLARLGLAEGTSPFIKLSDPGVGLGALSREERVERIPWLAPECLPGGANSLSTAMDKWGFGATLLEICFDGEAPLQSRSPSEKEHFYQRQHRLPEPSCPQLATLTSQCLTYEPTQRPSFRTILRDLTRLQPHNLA
T9 sequence (P10721 26-976 V559D): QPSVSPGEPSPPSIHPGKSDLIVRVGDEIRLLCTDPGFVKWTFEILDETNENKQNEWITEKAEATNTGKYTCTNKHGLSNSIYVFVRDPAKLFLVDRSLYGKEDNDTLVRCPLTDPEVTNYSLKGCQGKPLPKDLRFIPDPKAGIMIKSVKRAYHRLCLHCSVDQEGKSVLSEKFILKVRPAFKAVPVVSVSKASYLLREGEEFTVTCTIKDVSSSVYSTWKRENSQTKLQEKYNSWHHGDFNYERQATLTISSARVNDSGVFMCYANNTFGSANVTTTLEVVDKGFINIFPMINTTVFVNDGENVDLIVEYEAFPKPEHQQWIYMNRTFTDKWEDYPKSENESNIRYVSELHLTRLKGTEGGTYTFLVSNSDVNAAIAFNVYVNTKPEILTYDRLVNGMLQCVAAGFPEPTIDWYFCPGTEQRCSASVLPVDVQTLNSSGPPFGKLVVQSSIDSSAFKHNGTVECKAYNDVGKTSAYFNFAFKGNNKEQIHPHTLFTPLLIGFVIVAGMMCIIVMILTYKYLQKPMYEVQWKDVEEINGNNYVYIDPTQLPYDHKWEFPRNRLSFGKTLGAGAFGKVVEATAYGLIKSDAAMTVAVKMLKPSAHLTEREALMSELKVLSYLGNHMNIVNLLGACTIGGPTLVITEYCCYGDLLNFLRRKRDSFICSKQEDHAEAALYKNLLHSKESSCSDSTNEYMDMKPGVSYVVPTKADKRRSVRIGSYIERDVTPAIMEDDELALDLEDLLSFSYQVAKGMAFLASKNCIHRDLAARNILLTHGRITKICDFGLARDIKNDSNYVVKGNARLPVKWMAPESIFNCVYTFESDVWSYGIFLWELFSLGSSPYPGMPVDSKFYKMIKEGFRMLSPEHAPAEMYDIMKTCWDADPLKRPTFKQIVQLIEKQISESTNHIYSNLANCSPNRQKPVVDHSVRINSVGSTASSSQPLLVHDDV
T7 sequence (Q16620 32-822): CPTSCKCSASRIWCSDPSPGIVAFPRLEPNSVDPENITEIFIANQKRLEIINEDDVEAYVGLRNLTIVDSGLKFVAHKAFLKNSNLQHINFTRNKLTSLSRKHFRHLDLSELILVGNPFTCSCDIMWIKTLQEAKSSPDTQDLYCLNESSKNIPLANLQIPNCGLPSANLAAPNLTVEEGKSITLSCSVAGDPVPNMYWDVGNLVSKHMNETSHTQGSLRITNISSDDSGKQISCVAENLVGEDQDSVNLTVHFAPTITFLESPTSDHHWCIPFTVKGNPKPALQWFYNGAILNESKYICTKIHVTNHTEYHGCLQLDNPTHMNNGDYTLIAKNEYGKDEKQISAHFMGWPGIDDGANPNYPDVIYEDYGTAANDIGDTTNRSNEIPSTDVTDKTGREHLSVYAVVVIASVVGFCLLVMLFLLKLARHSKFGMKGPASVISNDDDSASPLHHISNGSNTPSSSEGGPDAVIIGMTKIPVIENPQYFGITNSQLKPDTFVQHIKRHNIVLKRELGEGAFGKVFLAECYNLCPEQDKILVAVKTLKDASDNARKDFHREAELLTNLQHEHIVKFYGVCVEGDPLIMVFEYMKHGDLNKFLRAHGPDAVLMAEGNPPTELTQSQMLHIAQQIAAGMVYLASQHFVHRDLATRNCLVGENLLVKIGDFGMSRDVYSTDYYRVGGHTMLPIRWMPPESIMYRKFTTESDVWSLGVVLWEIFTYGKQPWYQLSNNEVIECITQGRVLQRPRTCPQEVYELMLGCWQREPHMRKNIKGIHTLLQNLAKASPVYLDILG
T4 sequence (O43353 whole entry): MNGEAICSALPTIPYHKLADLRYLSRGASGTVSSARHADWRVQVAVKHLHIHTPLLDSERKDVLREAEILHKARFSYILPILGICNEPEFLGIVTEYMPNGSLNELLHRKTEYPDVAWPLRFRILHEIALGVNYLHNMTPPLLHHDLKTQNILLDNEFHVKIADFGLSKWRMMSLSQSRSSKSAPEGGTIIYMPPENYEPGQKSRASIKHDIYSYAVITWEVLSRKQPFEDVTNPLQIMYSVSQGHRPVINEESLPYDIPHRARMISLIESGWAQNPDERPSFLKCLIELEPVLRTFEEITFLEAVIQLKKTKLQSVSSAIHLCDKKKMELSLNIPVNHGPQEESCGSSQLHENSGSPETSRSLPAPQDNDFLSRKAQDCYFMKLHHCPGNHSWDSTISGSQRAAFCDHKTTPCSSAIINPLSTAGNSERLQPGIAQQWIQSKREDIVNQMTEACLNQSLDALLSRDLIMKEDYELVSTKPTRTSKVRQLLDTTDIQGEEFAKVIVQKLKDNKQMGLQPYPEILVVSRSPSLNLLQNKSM
T8 sequence (P19525 whole entry): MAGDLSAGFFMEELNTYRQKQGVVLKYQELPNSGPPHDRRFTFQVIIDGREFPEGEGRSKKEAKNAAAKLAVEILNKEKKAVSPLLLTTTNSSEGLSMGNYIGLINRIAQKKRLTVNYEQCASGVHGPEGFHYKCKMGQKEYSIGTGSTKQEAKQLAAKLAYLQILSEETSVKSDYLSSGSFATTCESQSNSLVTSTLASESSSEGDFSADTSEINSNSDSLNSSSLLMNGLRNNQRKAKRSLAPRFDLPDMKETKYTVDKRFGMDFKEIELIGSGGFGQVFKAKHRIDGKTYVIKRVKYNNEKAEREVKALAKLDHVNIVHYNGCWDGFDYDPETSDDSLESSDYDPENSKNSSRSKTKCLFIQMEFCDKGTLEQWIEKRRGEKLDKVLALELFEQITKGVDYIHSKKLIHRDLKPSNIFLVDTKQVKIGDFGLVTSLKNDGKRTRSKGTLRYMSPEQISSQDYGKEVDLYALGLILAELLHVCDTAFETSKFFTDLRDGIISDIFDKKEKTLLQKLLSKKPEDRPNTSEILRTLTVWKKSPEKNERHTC
T3 sequence (P42336 whole entry E542K): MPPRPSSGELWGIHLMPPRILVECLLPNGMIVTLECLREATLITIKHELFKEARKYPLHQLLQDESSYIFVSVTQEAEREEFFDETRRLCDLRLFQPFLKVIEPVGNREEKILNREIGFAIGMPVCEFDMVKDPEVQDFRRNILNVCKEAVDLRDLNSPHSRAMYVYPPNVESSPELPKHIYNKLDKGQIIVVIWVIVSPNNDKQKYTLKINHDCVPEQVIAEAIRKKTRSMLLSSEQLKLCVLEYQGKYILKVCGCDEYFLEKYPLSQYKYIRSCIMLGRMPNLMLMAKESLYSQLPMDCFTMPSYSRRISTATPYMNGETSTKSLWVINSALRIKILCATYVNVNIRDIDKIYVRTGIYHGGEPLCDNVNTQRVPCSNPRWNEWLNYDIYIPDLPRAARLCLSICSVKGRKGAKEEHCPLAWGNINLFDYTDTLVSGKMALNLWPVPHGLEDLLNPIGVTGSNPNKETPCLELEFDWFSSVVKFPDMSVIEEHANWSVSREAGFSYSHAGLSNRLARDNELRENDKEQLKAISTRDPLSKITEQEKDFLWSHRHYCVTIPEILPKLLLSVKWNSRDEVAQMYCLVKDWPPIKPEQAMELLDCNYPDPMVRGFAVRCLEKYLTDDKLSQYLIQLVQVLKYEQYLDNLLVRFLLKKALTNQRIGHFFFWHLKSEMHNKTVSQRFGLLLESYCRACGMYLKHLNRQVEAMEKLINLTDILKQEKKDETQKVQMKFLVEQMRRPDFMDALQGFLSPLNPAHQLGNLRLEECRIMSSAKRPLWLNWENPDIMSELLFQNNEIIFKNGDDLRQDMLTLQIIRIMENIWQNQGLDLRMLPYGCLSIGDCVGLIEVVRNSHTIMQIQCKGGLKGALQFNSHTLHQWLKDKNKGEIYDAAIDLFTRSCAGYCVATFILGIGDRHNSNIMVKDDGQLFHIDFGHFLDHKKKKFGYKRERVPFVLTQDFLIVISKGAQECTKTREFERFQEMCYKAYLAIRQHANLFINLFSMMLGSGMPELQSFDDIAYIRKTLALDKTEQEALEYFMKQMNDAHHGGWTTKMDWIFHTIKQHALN
T2 sequence (Q96GD4 whole entry): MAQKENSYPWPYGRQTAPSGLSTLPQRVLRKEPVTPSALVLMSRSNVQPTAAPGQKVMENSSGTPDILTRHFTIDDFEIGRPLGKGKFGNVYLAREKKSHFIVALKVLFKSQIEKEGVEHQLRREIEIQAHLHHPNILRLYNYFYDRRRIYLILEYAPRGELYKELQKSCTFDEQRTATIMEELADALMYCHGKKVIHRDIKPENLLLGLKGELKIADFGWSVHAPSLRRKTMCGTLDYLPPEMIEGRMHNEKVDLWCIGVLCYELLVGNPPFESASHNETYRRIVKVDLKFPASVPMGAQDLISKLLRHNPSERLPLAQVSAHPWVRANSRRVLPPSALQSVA

As for `Cc1cc(NC(=O)[C@H](O)c2cccc(F)c2)ccc1-c1cn(C)c2ncnc(N)c12` [Compound 11, (R)-N-(4-(4-amino-7-methyl-7H-pyrrolo[2,3-d]pyrimidin-5-yl)-3-methylphenyl)-2-(3-fluorophenyl)-2-hydroxy acetamide], the remaining binding at 1 µM came to 80% at FLT3(D835Y); 24% on AURKB; 89% at PIK3CA(E542K); 15% at RIPK2; 80% at TYK2(JH2domain-pseudok.); 2.9% on NEK1. For the same compound, the remaining binding at 1 µM at TRKB amounted to 22%; at PRKR, 42%; on KIT(V559D) it was 27%.
In the case of `Cc1nc(N)c2c(-c3ccc(NC(=O)[C@H](O)c4cccc(C(F)(F)F)c4)cc3C)cn(C)c2n1` [Compound 26], the remaining binding at 0.1 µM at FLT3(D835Y) (100 nM) was 88%; on AURKB (100 nM) it was 81%; on PIK3CA(E542K) (100 nM), 100%; at RIPK2 (100 nM), 91%; on TYK2(JH2domain-pseudok.) (100 nM), 98%; on NEK1 (100 nM) it was 88%. Further, the remaining binding at 0.1 µM at TRKB (100 nM) amounted to 92%; on PRKR (100 nM) it was 91%; at KIT(V559D) (100 nM), 96%. Also, the remaining binding at 1 µM at FLT3(D835Y) was 35%; at AURKB it was 70%; on PIK3CA(E542K) it was 91%; on RIPK2, 43%; on TYK2(JH2domain-pseudok.), 30%; on NEK1, 100%. In addition, the values for the remaining binding at 1 µM on TRKB, at PRKR and at KIT(V559D) were 18%, 96% and 0.45%, respectively.
As for `Cc1nc(N)c2c(-c3ccc(NC(=O)[C@H](O)c4cccc(F)c4)cc3C)cn(C)c2n1` [Compound 24], the remaining binding at 1 µM on FLT3(D835Y) stood at 96%; on AURKB it was 90%; at PIK3CA(E542K) it was 0.7%; at RIPK2, 100%; at TYK2(JH2domain-pseudok.), 79%; on NEK1, 100%. Also, the figures for the remaining binding at 1 µM at TRKB, at PRKR and at KIT(V559D) were 96%, 42% and 72%, respectively.

(Values after publication PMC9611727, “Optimization of a Novel Mandelamide-Derived Pyrrolopyrimidine Series of PERK Inhibitors” (Pharmaceutics, 2022).)
